Values joined by “and” are separate entries in the source; they are usually repeats but may differ in a detail not shown here. Equal entries are not always repeated. Where two headings read alike, the source gives them in different places.
Experiments:
[1] = Whole plasma pharmacokinetics in dogs (HPLC); type: in vivo, dog
Text: Br. J. Cancer (1984), 50, 291-303 Preclinical pharmacokinetics of benznidazole P. Workman', R.A.S. White2, M.I. Walton', L.N. Owen2* & P.R. Twentyman' 1MRC Clinical Oncology and Radiotherapeutics Unit, MRC Centre, Hills Road, Cambridge CB2 2QH, and 2Department of Clinical Veterinary Medicine, University of Cambridge, Madingley Road, Cambridge CB3 OES, UK. […] We have investigated the detailed pharmacokinetics of benznidazole in mice, dogs and sheep to provide a data base for the estimation of doses required for chemosensitization in man. Pharmacokinetic behaviour was linear except at high doses in mice. Absorption was fairly rapid and bioavailability was complete following both i.p. administration in mice and oral administration in dogs. Elimination t4 values were longer than for MISO, being 90 min in mice, 4-5 h in sheep and 9-11 h in dogs. At doses giving linear kinetics, peak whole plasma concentrations per administered mgkg-1 were 0.75 jigml-1 for the i.p. route in mice and 1.8jugmlP' for the oral route in dogs. Though between 39 and 59% of plasma benznidazole was bound to protein, tissue penetration was generally good. Tissue/whole plasma ratios ranged from 59-99% for transplantable mouse tumours and from 14-70% for spontaneous dog neoplasms. Nervous tissue penetration was similar to that in tumours: brain/whole plasma ratios averaged between 61 and 76% in mice and 42% in dogs, while peripheral nerve/whole plasma ratios in dogs averaged 74%. Mean liver/whole plasma ratios were 42% and 71% in BALB/c and C3H/He mouse strains respectively. Only -5% of the administered dose was excreted unchanged in the urine, indicating the likelihood of extensive metabolism. […] Enhancement of CCNU response is likely to require circulating benznidazole concentrations of 10-30 pgml-1 and we predict that these will be obtained with oral doses of 6-20 mgkg- 1 in man. […] This enhancement, or chemosensitization, is usually greater than that seen in dose-limiting normal tissues, resulting in an improved therapeutic index. Because of the relatively high doses of MISO usually required for chemosensitization in mice (see above refs), and also because of its neurotoxicity in man (Dische et al., 1977), we have been interested in finding an improved chemosensitizer. […] The lipophilic ana- logue benznidazole (N-benzyl-(2-nitroimidazolyl) acetamide, Ro 07-1051; Radanil; Roche), the structure of which is shown in Figure 1, was selected for detailed study because of its ability to *Present address: Animal Health Trust, Small Animals Centre, Lanwades Park, Kennett, Newmarket, Suffolk CB8 7PN, UK. Correspondence: P. Workman. […] These findings have been confirmed independently by Siemann et al. (1983). Although benznidazole is used quite widely in South America to treat patients with the trypanosomal infection Chagas' disease or with mucotaneous Leishmaniasis (Barclay et al., 1978; Cerisola et al., 1978; Coura et al., 1978; Fava et al., 1978), apart from our preliminary studies (White et al., 1982) the only published data on its pharmaco- kinetics are for human plasma concentrations measured by polarography (Raaflub & Ziegler, 1979; Raaflub, 1980). Here we describe the pharmacokinetics of benznidazole in the mouse, sheep and dog, as determined by high-performance liquid chromatography (HPLC). […] The Macmillan Press Ltd., 1984 292 P. WORKMAN et al. particularly on plasma and tumour concentrations, have been used as a basis for the estimation of the benznidazole doses required in a Phase I trial of benznidazole plus CCNU, at present ongoing in our Unit. Materials and methods Animals and tumours Adult inbred male BALB/c mice were obtained from OLAC (Southern) Ltd. (Bicester, UK) and adult inbred C3H/He mice of both sexes from OLAC and our own breeding colony. Mice were housed in plastic cages on sawdust bedding made from soft white woods, and allowed laboratory chow and water ad lib. They were used at 20-35 g body wt.

[2] = 24 h urinary recovery of unchanged drug in mice; type: in vivo, mouse; details: for dose excreted: male, BALB/c, mouse, urine, ip, 650 mg kg-1, BALB/c mice, 650 mg kg-1 i.p.
Text: (§1) Br. J. Cancer (1984), 50, 291-303 Preclinical pharmacokinetics of benznidazole P. Workman', R.A.S. White2, M.I. Walton', L.N. Owen2* & P.R. Twentyman' 1MRC Clinical Oncology and Radiotherapeutics Unit, MRC Centre, Hills Road, Cambridge CB2 2QH, and 2Department of Clinical Veterinary Medicine, University of Cambridge, Madingley Road, Cambridge CB3 OES, UK. […] We have investigated the detailed pharmacokinetics of benznidazole in mice, dogs and sheep to provide a data base for the estimation of doses required for chemosensitization in man. Pharmacokinetic behaviour was linear except at high doses in mice. Absorption was fairly rapid and bioavailability was complete following both i.p. administration in mice and oral administration in dogs. Elimination t4 values were longer than for MISO, being 90 min in mice, 4-5 h in sheep and 9-11 h in dogs. At doses giving linear kinetics, peak whole plasma concentrations per administered mgkg-1 were 0.75 jigml-1 for the i.p. route in mice and 1.8jugmlP' for the oral route in dogs. Though between 39 and 59% of plasma benznidazole was bound to protein, tissue penetration was generally good. Tissue/whole plasma ratios ranged from 59-99% for transplantable mouse tumours and from 14-70% for spontaneous dog neoplasms. Nervous tissue penetration was similar to that in tumours: brain/whole plasma ratios averaged between 61 and 76% in mice and 42% in dogs, while peripheral nerve/whole plasma ratios in dogs averaged 74%. […] Although benznidazole is used quite widely in South America to treat patients with the trypanosomal infection Chagas' disease or with mucotaneous Leishmaniasis (Barclay et al., 1978; Cerisola et al., 1978; Coura et al., 1978; Fava et al., 1978), apart from our preliminary studies (White et al., 1982) the only published data on its pharmaco- kinetics are for human plasma concentrations measured by polarography (Raaflub & Ziegler, 1979; Raaflub, 1980). Here we describe the pharmacokinetics of benznidazole in the mouse, sheep and dog, as determined by high-performance liquid chromatography (HPLC). […]

[3] = Tissue penetration in dogs bearing spontaneous neoplasms; type: in vivo, dog; details: for Kp: dog
Text: Br. J. Cancer (1984), 50, 291-303 Preclinical pharmacokinetics of benznidazole P. Workman', R.A.S. White2, M.I. Walton', L.N. Owen2* & P.R. Twentyman' 1MRC Clinical Oncology and Radiotherapeutics Unit, MRC Centre, Hills Road, Cambridge CB2 2QH, and 2Department of Clinical Veterinary Medicine, University of Cambridge, Madingley Road, Cambridge CB3 OES, UK. […] We have investigated the detailed pharmacokinetics of benznidazole in mice, dogs and sheep to provide a data base for the estimation of doses required for chemosensitization in man. Pharmacokinetic behaviour was linear except at high doses in mice. Absorption was fairly rapid and bioavailability was complete following both i.p. administration in mice and oral administration in dogs. Elimination t4 values were longer than for MISO, being 90 min in mice, 4-5 h in sheep and 9-11 h in dogs. At doses giving linear kinetics, peak whole plasma concentrations per administered mgkg-1 were 0.75 jigml-1 for the i.p. route in mice and 1.8jugmlP' for the oral route in dogs. Though between 39 and 59% of plasma benznidazole was bound to protein, tissue penetration was generally good. Tissue/whole plasma ratios ranged from 59-99% for transplantable mouse tumours and from 14-70% for spontaneous dog neoplasms. Nervous tissue penetration was similar to that in tumours: brain/whole plasma ratios averaged between 61 and 76% in mice and 42% in dogs, while peripheral nerve/whole plasma ratios in dogs averaged 74%. Mean liver/whole plasma ratios were 42% and 71% in BALB/c and C3H/He mouse strains respectively. Only -5% of the administered dose was excreted unchanged in the urine, indicating the likelihood of extensive metabolism. […] Enhancement of CCNU response is likely to require circulating benznidazole concentrations of 10-30 pgml-1 and we predict that these will be obtained with oral doses of 6-20 mgkg- 1 in man. […] This enhancement, or chemosensitization, is usually greater than that seen in dose-limiting normal tissues, resulting in an improved therapeutic index. Because of the relatively high doses of MISO usually required for chemosensitization in mice (see above refs), and also because of its neurotoxicity in man (Dische et al., 1977), we have been interested in finding an improved chemosensitizer. […] The lipophilic ana- logue benznidazole (N-benzyl-(2-nitroimidazolyl) acetamide, Ro 07-1051; Radanil; Roche), the structure of which is shown in Figure 1, was selected for detailed study because of its ability to *Present address: Animal Health Trust, Small Animals Centre, Lanwades Park, Kennett, Newmarket, Suffolk CB8 7PN, UK. Correspondence: P. Workman. […] These findings have been confirmed independently by Siemann et al. (1983). Although benznidazole is used quite widely in South America to treat patients with the trypanosomal infection Chagas' disease or with mucotaneous Leishmaniasis (Barclay et al., 1978; Cerisola et al., 1978; Coura et al., 1978; Fava et al., 1978), apart from our preliminary studies (White et al., 1982) the only published data on its pharmaco- kinetics are for human plasma concentrations measured by polarography (Raaflub & Ziegler, 1979; Raaflub, 1980). Here we describe the pharmacokinetics of benznidazole in the mouse, sheep and dog, as determined by high-performance liquid chromatography (HPLC). […]

Aqueous solubility = type: physicochemical
[4] = Maximum tolerated dose in mice; details: male, mouse, in vivo, ip; BALB/c mice, i.p., highest dose used; read-out: maximum tolerated dose (about)
Text: as §1, with “dogs.” for “dogs. Elimination t4 values were longer than for MISO, being 90 min in mice, 4-5 h in sheep and 9-11 h in dogs. At doses giving linear kinetics, peak whole plasma concentrations per administered mgkg-1 were 0.75 jigml-1 for the i.p. route in mice and 1.8jugmlP' for the oral route in dogs. Though between 39 and 59% of plasma benznidazole was bound to protein, tissue penetration was generally good. Tissue/whole plasma ratios ranged from 59-99% for transplantable mouse tumours and from 14-70% for spontaneous dog neoplasms. Nervous tissue penetration was similar to that in tumours: brain/whole plasma ratios averaged between 61 and 76% in mice and 42% in dogs, while peripheral nerve/whole plasma ratios in dogs averaged 74%.”

plasma proteins = test: Plasma protein binding, summary over species; type: in vivo; details: mouse, sheep, dog, range over species studied
Text: as §1, with “dogs.” for “dogs. Elimination t4 values were longer than for MISO, being 90 min in mice, 4-5 h in sheep and 9-11 h in dogs. At doses giving linear kinetics, peak whole plasma concentrations per administered mgkg-1 were 0.75 jigml-1 for the i.p. route in mice and 1.8jugmlP' for the oral route in dogs. Though between 39 and 59% of plasma benznidazole was bound to protein, tissue penetration was generally good. Tissue/whole plasma ratios ranged from 59-99% for transplantable mouse tumours and from 14-70% for spontaneous dog neoplasms. Nervous tissue penetration was similar to that in tumours: brain/whole plasma ratios averaged between 61 and 76% in mice and 42% in dogs, while peripheral nerve/whole plasma ratios in dogs averaged 74%.”

human plasma = details: cited from earlier work

O=C(Cn1ccnc1[N+](=O)[O-])NCc1ccccc1 [benznidazole, N-benzyl-(2-nitroimidazolyl) acetamide]
peak time ([1]; dog C, 12.5 mg kg-1 oral): 1 h
peak time ([1]; dog C, 25 mg kg-1 oral): 5 h
peak whole plasma concentration ([1]; dog C, collie crossbred 28 kg, 5 mg kg-1 i.v.): 12.7 µg/mL
peak whole plasma concentration ([1]; dog C, collie crossbred 28 kg, 12.5 mg kg-1 oral): 26.5 µg/mL
peak whole plasma concentration ([1]; dog C, collie crossbred 28 kg, 25 mg kg-1 oral): 38.9 µg/mL
peak time ([1]; dog D, 5 mg kg-1 i.v.): 0.083 h
peak time ([1]; dog D, 12.5 mg kg-1 oral): 12 h
peak time ([1]; dog D, 25 mg kg-1 oral): 3 h
peak whole plasma concentration ([1]; dog D, collie crossbred 20 kg, 5 mg kg-1 i.v.): 12.4 µg/mL
peak whole plasma concentration ([1]; dog D, collie crossbred 20 kg, 12.5 mg kg-1 oral (slow, prolonged absorption)): 13.1 µg/mL
peak whole plasma concentration ([1]; dog D, collie crossbred 20 kg, 25 mg kg-1 oral): 46.5 µg/mL
peak whole plasma concentration ([1]; dog E, beagle 9 kg, 50 mg kg-1 oral): 59.8 µg/mL
peak time ([1]; dog F, 50 mg kg-1 oral): 3 h
peak whole plasma concentration ([1]; dog F, beagle 10 kg, 50 mg kg-1 oral): 54.8 µg/mL
Tmax ([1]; dog, plasma, po, dogs, discussion summary, read-out: time of peak concentrations after oral dosing): 3 to 5 h
overall oral bioavailability (dose-normalised AUC0-∞ oral vs i.v.) ([1]; dogs C and D): about 130%
peak concentrations readily achieved ([1]; dogs, oral doses of 25-50 mg kg-1): 50 µg/mL
average peak whole plasma concentration ([1]; large crossbred dogs, 12.5 mg kg-1 oral): 20 µg/mL
average peak whole plasma concentration ([1]; large crossbred dogs, 25 mg kg-1 oral): 47 µg/mL
mean peak whole plasma concentration per administered mg kg-1 ([1]; large crossbred dogs, oral route (s.e., n=6)): 1.8 µg ml-1 and 1.77 + 0.17 µg ml-1
dose excreted ([2]; experiment 1): 4.8%
dose excreted ([2]; experiment 2): 5.2%
administered dose excreted unchanged in the urine ([2]; summary value): approximately 5%
tissue/whole plasma ratio, overall mean + s.e. ([3]; 24 neoplastic tissue samples (excluding cyst fluid)): 50+3%
absolute neoplastic tissue concentration, overall mean+s.e. ([3]; 24 samples, 1.67-4.5 h, normalised to 12.5 mg kg-1 oral): 5.6 +0.5 µg g-1
Kp ([3]; liver/whole plasma, first of the two values obtained, read-out: liver/whole plasma ratio): 0.14
Kp ([3]; liver/whole plasma, second of the two values obtained, read-out: liver/whole plasma ratio): 0.51
Kp ([3]; tumour (spontaneous neoplastic tissue), po, neoplastic tissues, 12.5 (one dog 25) mg kg-1 oral, 1.67-4.5 h, read-out: tissue/whole plasma ratios, range): 0.14 to 0.7
aqueous solubility (Aqueous solubility): low aqueous solubility
MTD [4]: ~832 mg/kg
fraction unbound (plasma proteins): 0.41 to 0.61
binding to plasma proteins (human plasma; ref Raaflub & Ziegler, 1979): 44%
binding to plasma proteins (human plasma; ref Workman & Brown, 1981): 58%
